Source: patent publication US20250236617A1, “BICYCLIC TETRAHYDROTHIAZEPINE DERIVATIVES” (Hoffmann-La Roche Inc., priority 2022, published 2025)

How the values were obtained:
[1] = system: primary human T-cells; assay: IL2 secretion measurements in CD3-stimulated T-cells; type: cell-based; conditions: CD3 condition; for Emax IL2 (% activation): 24 hours, 20 μM reference compound A1 = 100%; for EC50: Homo sapiens, T-cell, IL2 secretion after 24 hours, read-out: Tcell IL2 CD3 EC50
Procedure: As readouts for T-cell activation, 1L2 secretion after 24 hours and proliferation after 5 days was measured. Increases in 1L2 secretion and proliferation upon compound treatment were assessed as the % of the maximum of reference compound A1. WO 2016/139181 discloses reference compound A1 as example 70. As a counter screen and to make sure that no unwanted TCR-independent activation was triggered, PBS conditions were run for all compounds.
Expanded primary human T-cells were thawed and cultured in RPMI 1640 (Gibco, #61870-010)+5% human serum (HS, Sigma, #H3667)+1 mM Sodium Pyruvate (Gibco, #11360-039)+50 μM 2-mercaptoethanol (Gibco, #31350-010) and 1× Pen-Strep (Life Technologies, #15140122) medium at density of 2 Mio/ml for 3 hours in 5% CO2, 37° C. and 95% humidity. For coating of plates, […] or PBS++ with CD3 antibody (concentration depending on donor and determined by CD3 titrations) was added 100 μl/well to Poly-D Lysine coated 96-well plates. Plates were sealed and incubated at room temperature for 3 hours on a table-top rocking platform. After incubation, plates were washed once with PBS−− and filled with 40 μl/well culture medium only. Compounds were then added (see next section) to medium only plates. After 3 hours of culturing the T-cells, cells were filtered through a cell strainer (Miltenyi Biotech, #130-041-407), counted again and concentration was adjusted to 1.25 Mio/ml.
Cells were then seeded 80 μl/well to the 40 μl/well including dispensed compounds according to plate layout. By adding cells, compounds were further diluted 1:3, and resulting in 100 k cells/120 μl/well. After 24 hours 40 μl of supernatant was collected carefully from the top while not disturbing the cells and transferred into a round bottom 96 well plate. Collected and frozen supernatant was used for detection of IL2 using the IL-2 Human ProQuantum Immunoassay Kit (Invitrogen) or using the Human IL-2 ELISA Kit (Thermo Fisher).
(§1) Compounds were added in a 5 or 6 pt dose response with the Tecan D300e Digital Dispenser, all conditions 3 times more concentrated than the end-concentration, since cells are added afterwards (80 μl cells to 40 μl prepared medium with treatment). The DR was starting at 20 μM or 10 μM final top concentration and a dilution factor of 3.333. The positive control was the reference compound A1 that was added in a dose response as well, additionally to 3 wells of only 20 μM representing the positive stimulator control. All wells were normalized with DMSO to a final concentration of 0.6% (0.2% end-concentration).
The immunoassay is done following the manufacturer's manual (Invitrogen, #A35603). Additional information: For the immunoassay, MicroAmp™ EnduraPlate™ Optical 384-Well plates are used. Frozen supernatant is thawed and centrifuged for 5 minutes at 1000×g, both steps at 4° C. After centrifugation, required sample amount is taken from the top, and in a separate LightCycler V-bottom plate (working plate) diluted with assay dilution buffer, dilution factor depending on the PBS or CD3 condition but at least 1:3. IL-2 standard and blanks are prepared in the same V-bottom plate, standard with a range of […] (extended version). After preparation, 5 μl of sample dilutions or standard/blanks are transferred to the optical 384-well plate (assay plate) and the 10 μl reaction protocol is being followed. For measurement, the QuantStudio 12K Flex system is used. Raw data is extracted and IL-2 concentrations are calculated with the Thermo Fisher online app (apps.thermofisher.com/apps/proquantum).
ELISA is done following the manufacturer's manual (Thermo Fisher Scientific, #88-7025-88). Additional information: For the ELISA Nunc MaxiSorp 96 well plates are used. Frozen supernatant is thawed and centrifuged for 5 minutes at 1000×g, both steps at 4° C. […]

[2] = system: primary human T-cells; assay: T-cell proliferation assay (CellTiter-Glo); type: cell-based; conditions: CD3 condition; for EC50: Homo sapiens, T-cell, 120 h, proliferation after 5 days, CellTiter-Glo, read-out: Tcell Proliferation CD3 EC50; for Emax proliferation (% activation): 5 days, 20 μM reference compound A1 = 100%
Procedure: For coating of plates, PBS++ only or PBS++ with CD3 antibody (concentration depending on donor and determined by CD3 titrations) is added 100 μl/well to Poly-D Lysine coated 96-well plates. Plates are sealed and incubated at room temperature for 3 hours on a table-top rocking platform. After incubation, plates are washed once with PBS−− and filled with 40 μl/well culture medium only. Compounds are then added (see next section) to medium only plates. After 3 hours of culturing the T-cells, cells are filtered through a cell strainer (Miltenyi Biotech, #130-041-407), counted again and concentration is adjusted to 1.25 Mio/ml.
Cells are then seeded 80 μl/well to the 40 μl/well including dispensed compounds according to plate layout. By adding cells, compounds are further diluted 1:3, and resulting in 100 k cells/120 μl/well. After 48 hours 40 μl of supernatant is collected carefully from the top while not disturbing the cells. Cells are assessed for proliferation 5 days later by measuring […] using CellTiterGlo (Promega).
as §1, with “The DR was starting at 20 μM or 10 μM final top concentration and a dilution factor of 3.333.” left out
After 5 days, for detection of ATP which is directly proportional to the number of cells present per well, the CellTiter-Glo® 2.0 Reagent is used. After visual control for toxicity or precipitations of the tested compounds, the plates are equilibrated to room temperature for 45 minutes. CellTiter-Glo® 2.0 Reagent is equilibrated to room temperature as well. After equilibration, an equal amount of CellTiter-Glo reagent is added to the cells (80 μl/well) with an electronic multichannel pipette. Plates are placed on a rocking platform for 15 minutes at room temperature. After incubation, the bottom of the plates is sealed with backing tape. Luminescence is measured with PHERAstar FSX (interval time 0.5 sec, gain 3000, focal height 15 mm) and exported as CSV file for analysis in Genedata screener.
Calculations and Data Reporting CD3 and PBS plates were analysed separately in Genedata Screener using Roche Normalization PCT_POS_CTRL with DMSO set as Neutral Control and 20 μM of the reference compound A1 set as Stimulator Control/100%.
For CD3 conditions EC50 and Emax of the fitted sigmoidal curve were reported. If no curve could be fitted, the EC50 was reported as blank field and the Emax was based on individual data points. […] Compounds which activate unstimulated cells (see IL2 measurements) or compounds which negatively affected viability were flagged.

Structure (SMILES) | EC50 [1] | Emax IL2 (% activation) [1] | EC50 [2] | Emax proliferation (% activation) [2]
Cc1nnc(-c2cc3c(cc2F)S(=O)(=O)C[C@H](N)C(=O)N3Cc2ccc(Cl)cc2)nc1-c1ccccc1 [Example 13, (3R)-3-amino-5-[(4-chlorophenyl)methyl]-8-fluoro-7-(6-methyl-5-phenyl-1,2,4-triazin-3-yl)-1,1-dioxo-2,3-dihydro-1λ6,5-benzothiazepin-4-one] | > 10 µM | 48 % activation | 3.64 µM | 
CC(C)(C)c1cncc(-c2cc3c(cc2F)S(=O)(=O)C[C@H](N)C(=O)N3Cc2ccc(-c3noc(C(F)(F)F)n3)cc2)c1 [Example 22, (3R)-3-amino-7-(5-tert-butyl-3-pyridyl)-8-fluoro-1,1-diketo-5-[4-[5-(trifluoromethyl)-1,2,4-oxadiazol-3-yl]benzyl]-2,3-dihydro-1λ6,5-benzothiazepin-4-one] | 0.811 µM | 458 % activation | 0.092 µM | 228 % activation
N[C@H]1CS(=O)(=O)c2cc(F)c(-c3cccc(C(F)(F)F)n3)cc2N(Cc2ccc(Cl)cc2)C1=O [Example 9, (3R)-3-amino-5-[(4-chlorophenyl)methyl]-8-fluoro-1,1-dioxo-7-[6-(trifluoromethyl)-2-pyridyl]-2,3-dihydro-1λ6,5-benzothiazepin-4-one] |  |  | 6.69 µM | 76 % activation
N[C@H]1CS(=O)(=O)c2cc(F)c(-c3cnnc(C4(C(F)(F)F)CC4)c3)cc2N(Cc2ccc(-c3noc(C(F)(F)F)n3)cc2)C1=O [Example 37, (3R)-3-amino-8-fluoro-1,1-dioxo-7-[6-[1-(trifluoromethyl)cyclopropyl]pyridazin-4-yl]-5-[[4-[5-(trifluoromethyl)-1,2,4-oxadiazol-3-yl]phenyl]methyl]-2,3-dihydro-1λ6,5-benzothiazepin-4-one] |  |  | 0.729 µM | 147 % activation
CC(C)(C)c1cnc(-c2cc3c(cc2F)S(=O)(=O)C[C@H](N)C(=O)N3Cc2ccc(Cl)cc2)nn1 [Example 12, (3R)-3-amino-7-(6-tert-butyl-1,2,4-triazin-3-yl)-5-[(4-chlorophenyl)methyl]-8-fluoro-1,1-dioxo-2,3-dihydro-1λ6,5-benzothiazepin-4-one] | 2.78 µM | 77 % activation | 1.67 µM | 

Continued, in another order:

EC50 [1] | Structure (SMILES) | Emax IL2 (% activation) [1] | EC50 [2] | Emax proliferation (% activation) [2]
1.65 µM | CCN(CC)c1cnnc(-c2cc3c(cc2F)S(=O)(=O)C[C@H](N)C(=O)N3Cc2ccc(Cl)cc2)n1 [Example 15, (3R)-3-amino-5-[(4-chlorophenyl)methyl]-7-[5-(diethylamino)-1,2,4-triazin-3-yl]-8-fluoro-1,1-dioxo-2,3-dihydro-1λ6,5-benzothiazepin-4-one] | 79 % activation | 1.71 µM | 
1.63 µM | CC(C)Oc1ccc(CN2C(=O)[C@@H](N)CS(=O)(=O)c3cc(F)c(-c4nncc(C(C)(C)C)n4)cc32)cc1 [Example 14, (3R)-3-amino-7-(5-tert-butyl-1,2,4-triazin-3-yl)-8-fluoro-5-[(4-isopropoxyphenyl)methyl]-1,1-dioxo-2,3-dihydro-1λ6,5-benzothiazepin-4-one] | 73 % activation | 0.254 µM | 
> 10 µM | COc1cncc(-c2cc3c(cc2F)S(=O)(=O)C[C@H](N)C(=O)N3Cc2ccc(Cl)cc2)c1 [Example 26, (3R)-3-amino-5-[(4-chlorophenyl)methyl]-8-fluoro-7-(5-methoxy-3-pyridyl)-1,1-dioxo-2,3-dihydro-1λ6,5-benzothiazepin-4-one] | 29 % activation | 0.416 µM | 
3.2 µM | CC(C)Oc1cc(-c2cc3c(cc2F)S(=O)(=O)C[C@H](N)C(=O)N3Cc2ccc(Cl)cc2)cnn1 [Example 7, (3R)-3-amino-5-[(4-chlorophenyl)methyl]-8-fluoro-7-(6-isopropoxypyridazin-4-yl)-1,1-dioxo-2,3-dihydro-1λ6,5-benzothiazepin-4-one] | 49 % activation | 0.172 µM | 
2.24 µM | CC(C)(C)c1cc(-c2cc3c(cc2F)S(=O)(=O)C[C@H](N)C(=O)N3Cc2ccc(Cl)cc2)ncn1 [Example 4, (3R)-3-amino-7-(6-tert-butylpyrimidin-4-yl)-5-[(4-chlorophenyl)methyl]-8-fluoro-1,1-dioxo-2,3-dihydro-1λ6,5-benzothiazepin-4-one] | 81 % activation | 0.408 µM | 
1.11 µM | Cc1ncc(-c2cc3c(cc2F)S(=O)(=O)C[C@H](N)C(=O)N3Cc2ccc(Cl)cc2)cc1C(C)(C)C [Example 16, (3R)-3-amino-7-(5-tert-butyl-6-methyl-3-pyridyl)-5-[(4-chlorophenyl)methyl]-8-fluoro-1,1-dioxo-2,3-dihydro-1λ6,5-benzothiazepin-4-one] | 87 % activation | 0.036 µM | 
> 20 µM | N[C@H]1CS(=O)(=O)c2cc(F)c(-c3cc(C(F)(F)F)ccn3)cc2N(Cc2ccc(Cl)cc2)C1=O [Example 8, (3R)-3-amino-5-[(4-chlorophenyl)methyl]-8-fluoro-1,1-dioxo-7-[4-(trifluoromethyl)-2-pyridyl]-2,3-dihydro-1λ6,5-benzothiazepin-4-one] | 37 % activation | 1.31 µM | 100 % activation
